Measurements: publication PMC11859928, “Design, Synthesis, and Antiproliferative Activity of Novel Indole/1,2,4-Triazole Hybrids as Tubulin Polymerization Inhibitors” (Pharmaceuticals, 2025)

Tests used:
Assay in all cases: NCI one-dose assay
Type in all cases: cell-based
A549/ATCC = conditions: Homo sapiens, Non-small cell lung cancer, read-out: Cell growth inhibition %
Protocol: (§1) The National Cancer Institute (NCI), Bethesda, USA, selected the final compounds 6a–j and 7a–j for in vitro anticancer screening. An initial in vitro single-dose anticancer experiment was performed with the entire NCI 60 cell lines derived from nine tumor subpanel cancer cell lines. The results for each compound were illustrated as a mean graph showing the percentage growth of treated cells compared to untreated control cells (see Supplementary Materials).
(§2) The NCI anticancer screening process has been thoroughly detailed. The Drug Evaluation Branch of the National Cancer Institute in Bethesda, […], USA, established the procedure and conducted the anticancer assay on 60 human tumor cell lines from nine neoplastic cancers.

ACHN = conditions: Homo sapiens, Renal cancer, read-out: Cell growth inhibition %
Protocol: as §1, §2

BT-549 = conditions: Homo sapiens, BT-549, Breast cancer, read-out: Cell growth inhibition %
Protocol: as §1, §2

CAKI-1 = conditions: Homo sapiens, CAKI-1, Renal cancer, read-out: Cell growth inhibition %
Protocol: as §1, §2

CCRF-CEM = conditions: Homo sapiens, Leukemia, read-out: Cell growth inhibition %
Protocol: as §1, §2

COLO 205 = conditions: Homo sapiens, COLO 205, Colon cancer, read-out: Cell growth inhibition %
Protocol: as §1, §2

DU-145 = conditions: Homo sapiens, DU-145, Prostate cancer, read-out: Cell growth inhibition %
Protocol: as §1, §2

EKVX = conditions: Homo sapiens, Non-small cell lung cancer, read-out: Cell growth inhibition %
Protocol: as §1, §2

HCC-2998 = conditions: Homo sapiens, HCC-2998, Colon cancer, read-out: Cell growth inhibition %
Protocol: as §1, §2

HCT-116 = conditions: Homo sapiens, HCT-116, Colon cancer, read-out: Cell growth inhibition %
Protocol: as §1, §2

HCT-15 = conditions: Homo sapiens, HCT-15, Colon cancer, read-out: Cell growth inhibition %
Protocol: as §1, §2

HL-60(TB) = conditions: Homo sapiens, Leukemia, read-out: Cell growth inhibition %
Protocol: as §1, §2

HS 578 T = conditions: Homo sapiens, Breast cancer, read-out: Cell growth inhibition %
Protocol: as §1, §2

IGROV1 = conditions: Homo sapiens, IGROV-1, IGROV1, Ovarian cancer, read-out: Cell growth inhibition %
Protocol: as §1, §2

K-562 = conditions: Homo sapiens, K562, K-562, Leukemia, read-out: Cell growth inhibition %
Protocol: as §1, §2

KM12 = conditions: Homo sapiens, KM12, Colon cancer, read-out: Cell growth inhibition %
Protocol: as §1, §2

MALME-3M = conditions: Homo sapiens, Melanoma, read-out: Cell growth inhibition %
Protocol: as §1, §2

MDA-MB-231/ATCC = conditions: Homo sapiens, Breast cancer, read-out: Cell growth inhibition %
Protocol: as §1, §2

MOLT-4 = conditions: Homo sapiens, MOLT-4, Leukemia, read-out: Cell growth inhibition %
Protocol: as §1, §2

NCI-H226 = conditions: Homo sapiens, NCI-H226, Non-small cell lung cancer, read-out: Cell growth inhibition %
Protocol: as §1, §2

NCI-H23 = conditions: Homo sapiens, NCI-H23, Non-small cell lung cancer, read-out: Cell growth inhibition %
Protocol: as §1, §2

NCI-H460 = conditions: Homo sapiens, NCI-H460, Non-small cell lung cancer, read-out: Cell growth inhibition %
Protocol: as §1, §2

NCI-H522 = conditions: Homo sapiens, NCI-H522, Non-small cell lung cancer, read-out: Cell growth inhibition %
Protocol: as §1, §2

NCI/ADR-RES = conditions: Homo sapiens, Ovarian cancer, read-out: Cell growth inhibition %
Protocol: as §1, §2

OVCAR-3 = conditions: Homo sapiens, OVCAR-3, Ovarian cancer, read-out: Cell growth inhibition %
Protocol: as §1, §2

OVCAR-5 = conditions: Homo sapiens, OVCAR-5, Ovarian cancer, read-out: Cell growth inhibition %
Protocol: as §1, §2

PC-3 = conditions: Homo sapiens, PC-3, Prostate cancer, read-out: Cell growth inhibition %
Protocol: as §1, §2

RPMI-8226 = conditions: Homo sapiens, RPMI-8226, Leukemia, read-out: Cell growth inhibition %
Protocol: as §1, §2

SF-295 = conditions: Homo sapiens, SF-295, CNS cancer, read-out: Cell growth inhibition %
Protocol: as §1, §2

SF-539 = conditions: Homo sapiens, SF-539, CNS cancer, read-out: Cell growth inhibition %
Protocol: as §1, §2

SK-MEL-28 = conditions: Homo sapiens, SK-MEL-28, Melanoma, read-out: Cell growth inhibition %
Protocol: as §1, §2

SK-OV-3 = conditions: Homo sapiens, SK-OV-3, Ovarian cancer, read-out: Cell growth inhibition %
Protocol: as §1, §2

SN12C = conditions: Homo sapiens, Renal cancer, read-out: Cell growth inhibition %
Protocol: as §1, §2

SR = conditions: Homo sapiens, Leukemia, read-out: Cell growth inhibition %
Protocol: as §1, §2

U251 = conditions: Homo sapiens, U-251, U251, CNS cancer, read-out: Cell growth inhibition %
Protocol: as §1, §2

UACC-257 = conditions: Homo sapiens, UACC-257, Melanoma, read-out: Cell growth inhibition %
Protocol: as §1, §2

UACC-62 = conditions: Homo sapiens, UACC-62, Melanoma, read-out: Cell growth inhibition %
Protocol: as §1, §2

Which inhibition at 10 µM (A549/ATCC) does the source give for `C=CCn1c(SCC(=O)c2ccccc2)nnc1-c1c[nH]c2ccccc12` [Compound 6a, 2-((4-Allyl-5-(1H-indol-3-yl)-4H-1,2,4-triazol-3-yl)thio)-1-phenylethanone] here?
The inhibition at 10 µM was -0.25%.

What about the inhibition at 10 µM (ACHN) of the same molecule?
The inhibition at 10 µM was 6.19%.

What about the inhibition at 10 µM (BT-549) of the same molecule?
Its inhibition at 10 µM is -9.39%.

What about the inhibition at 10 µM (CAKI-1) of the same molecule?
The inhibition at 10 µM was 16.9%.

What about the inhibition at 10 µM (CCRF-CEM) of the same molecule?
The inhibition at 10 µM was 8.76%.

And the inhibition at 10 µM (COLO 205)?
Its inhibition at 10 µM is -22.1%.

And the inhibition at 10 µM (DU-145)?
The inhibition at 10 µM was -9.05%.

What about the inhibition at 10 µM (EKVX) of the same molecule?
The inhibition at 10 µM was 4.22%.

And the inhibition at 10 µM (HCC-2998)?
The inhibition at 10 µM was -10.6%.

And the inhibition at 10 µM (HCT-116)?
The inhibition at 10 µM was 2.55%.

And the inhibition at 10 µM (HCT-15)?
Its inhibition at 10 µM is 4%.

And the inhibition at 10 µM (HL-60(TB))?
The inhibition at 10 µM was 4.39%.

What about the inhibition at 10 µM (HS 578 T) of the same molecule?
The inhibition at 10 µM was 2.96%.

And the inhibition at 10 µM (IGROV1)?
The inhibition at 10 µM was 11.6%.

What about the inhibition at 10 µM (K-562) of the same molecule?
The inhibition at 10 µM was 7.37%.

And the inhibition at 10 µM (KM12)?
Its inhibition at 10 µM is -11.8%.

And the inhibition at 10 µM (MALME-3M)?
The inhibition at 10 µM was 13.4%.

What about the inhibition at 10 µM (MDA-MB-231/ATCC) of the same molecule?
Its inhibition at 10 µM is 11.2%.

What about the inhibition at 10 µM (MOLT-4) of the same molecule?
The inhibition at 10 µM was 7.17%.

And the inhibition at 10 µM (NCI-H226)?
The inhibition at 10 µM was 12.2%.

And the inhibition at 10 µM (NCI-H23)?
The inhibition at 10 µM was 0.39%.

What about the inhibition at 10 µM (NCI-H460) of the same molecule?
Its inhibition at 10 µM is -6.84%.

And the inhibition at 10 µM (NCI-H522)?
Its inhibition at 10 µM is 2.25%.

What about the inhibition at 10 µM (NCI/ADR-RES) of the same molecule?
Its inhibition at 10 µM is 2.62%.

And the inhibition at 10 µM (OVCAR-3)?
Its inhibition at 10 µM is -14.8%.

And the inhibition at 10 µM (OVCAR-5)?
The inhibition at 10 µM was -3.17%.

What about the inhibition at 10 µM (PC-3) of the same molecule?
The inhibition at 10 µM was 10.9%.

And the inhibition at 10 µM (RPMI-8226)?
Its inhibition at 10 µM is 13.4%.

What about the inhibition at 10 µM (SF-295) of the same molecule?
The inhibition at 10 µM was 3.79%.

What about the inhibition at 10 µM (SF-539) of the same molecule?
The inhibition at 10 µM was 2.68%.

And the inhibition at 10 µM (SK-MEL-28)?
Its inhibition at 10 µM is -5.22%.

What about the inhibition at 10 µM (SK-OV-3) of the same molecule?
Its inhibition at 10 µM is -20.4%.

What about the inhibition at 10 µM (SN12C) of the same molecule?
The inhibition at 10 µM was 7.27%.

And the inhibition at 10 µM (SR)?
Its inhibition at 10 µM is 23.5%.

What about the inhibition at 10 µM (U251) of the same molecule?
Its inhibition at 10 µM is -7.24%.

What about the inhibition at 10 µM (UACC-257) of the same molecule?
The inhibition at 10 µM was 2.08%.

What about the inhibition at 10 µM (UACC-62) of the same molecule?
The inhibition at 10 µM was 18.5%.
